Key:
Smn protein = Smn protein assay in cultured cells (SMN HTRF); assay type: cell-based, human; conditions: 48 hours; for EC1.5x (concentration giving 1.5-fold Smn protein increase): SMA Type 1 patient fibroblast cells (GM03813), 7-point concentration curve, SMN HTRF, concentration producing 1.5 times Smn protein vs DMSO vehicle control, read-out: EC1.5x for Smn protein expression; for maximum fold (Fold) increase of Smn protein: SMA patient fibroblast cells, 7-point concentration data, fold increase relative to vehicle control (SMN HTRF)
Procedure, shortened: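 Smn in SMA fibroblast lysates, measured by anti-SMN HTRF after 48 h compound exposure; EC1.5x from fold change over vehicle.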

[1] = system: SMN2 minigene (full length SMN2 minigene mRNA containing SMN2 exon 7); experiment: SMN2 minigene mRNA splicing RT-qPCR assay in cultured cells; assay type: cell-based, human; conditions: Homo sapiens, HEK293-H; HEK293H cells stably transfected with SMN2-A minigene; 24 hours; 7-point concentration curve; 1.5-fold relative to vehicle-treated cells; read-out: EC1.5x for production of full length SMN2 mRNA
Procedure, shortened: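 Full-length SMN2 minigene mRNA (exon 7 included), minigene-specific and not endogenous SMN, quantified by RT-qPCR multiplexed with GAPDH in stably transfected HEK293H cells after 24 h compound exposure at 37° C. Abundance from efficiency-corrected Ct, normalized to GAPDH and vehicle; EC1.5x reported as star bins.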

Row | melting point | Compound | EC1.5x (concentration giving 1.5-fold Smn protein increase) (Smn protein) | maximum fold (Fold) increase of Smn protein (Smn protein) | EC (1.5-fold) [1]
1 | 240 °C (dec.) | COc1ccc(-c2cc3c(F)cc(N4CCNCC4)cc3oc2=O)cc1OC [Compound 404, 3-(3,4-dimethoxyphenyl)-5-fluoro-7-(piperazin-1-yl)-2H-chromen-2-one] | 1000 to 3000 nM | **** (fold increase between >1.5 and ≤1.65) | 0.3 to 1 µM
2 | 212 to 214 °C | Cc1cn2cc(-c3cc4ccc(N5CCN(CC(C)(C)O)CC5)cc4oc3=O)nc2c(C)n1 [Compound 962, 3-(6,8-dimethylimidazo[1,2-a]pyrazin-2-yl)-7-[4-(2-hydroxy-2-methylpropyl)piperazin-1-yl]-2H-chromen-2-one] | < 300 nM | ***** (fold increase >1.65) | < 0.1 µM
3 | 285 to 291 °C | Cc1cn2cc(-c3cc4ccc(CNC(C)C)cc4oc3=O)nc2c(C)n1 [Compound 850, 3-(6,8-dimethylimidazo[1,2-a]pyrazin-2-yl)-7-[(propan-2-ylamino)methyl]-2H-chromen-2-one] |  | ** (fold increase between >1.2 and ≤1.35) | 0.3 to 1 µM
4 | 290 to 300 °C | C[C@@H]1CN(c2cc(F)c3cc(-c4cn5cccc(Cl)c5n4)c(=O)oc3c2)C[C@H](C)N1 [Compound 388, 3-(8-chloroimidazo[1,2-a]pyridin-2-yl)-7-[(3R,5S)-3,5-dimethylpiperazin-1-yl]-5-fluoro-2H-chromen-2-one] |  | ** (fold increase between >1.2 and ≤1.35) | 0.3 to 1 µM
5 | 245 to 247 °C | C[C@@H]1CN[C@@H](C)CN1c1ccc2cc(-c3cn4cc(Cl)ccc4n3)c(=O)oc2c1 [Compound 93, 3-(6-chloroimidazo[1,2-a]pyridin-2-yl)-7-[(2R,5S)-2,5-dimethylpiperazin-1-yl]-2H-chromen-2-one] |  | ** (fold increase between >1.2 and ≤1.35) | 1 to 3 µM
6 | 235 to 238 °C | O=c1oc2cc(N3CCN4CCC[C@H]4C3)ccc2cc1-c1cn2cccc(F)c2n1 [Compound 528, 3-(8-fluoroimidazo[1,2-a]pyridin-2-yl)-7-[(8aS)-hexahydropyrrolo[1,2-a]pyrazin-2(1H)-yl]-2H-chromen-2-one] |  | ** (fold increase between >1.2 and ≤1.35) | 1 to 3 µM
7 | 203 to 205 °C | Cc1ccn2nc(-c3cc4ccc(N5CCNC(C)(C)C5)cc4oc3=O)cc2c1 [Compound 305, 7-(3,3-dimethylpiperazin-1-yl)-3-(5-methylpyrazolo[1,5-a]pyridin-2-yl)-2H-chromen-2-one] |  | ** (fold increase between >1.2 and ≤1.35) | 0.3 to 1 µM
8 | 295 to 298 °C | Cc1ccn2cc(-c3cc4ccc(N5CCNCC5)cc4oc3=O)nc2n1 [Compound 223, 3-(7-methylimidazo[1,2-a]pyrimidin-2-yl)-7-(piperazin-1-yl)-2H-chromen-2-one] |  | * (maximum fold increase of ≤1.2) | 0.3 to 1 µM
9 | 163 to 165 °C | C[C@@H]1CN(c2ccc3cc(-c4cc5cnccc5s4)c(=O)oc3c2)C[C@H](C)N1 [Cpd 630, 7-[(3R,5S)-3,5-dimethylpiperazin-1-yl]-3-(thieno[3,2-c]pyridin-2-yl)-2H-chromen-2-one] |  | * (maximum fold increase of ≤1.2) | 0.3 to 1 µM
10 | 186 to 189 °C | Cc1cn2cc(-c3cc4ccc(N5CCNCC5)cc4oc3=O)cc2c(C)n1 [Compound 670, 3-(1,3-dimethylpyrrolo[1,2-a]pyrazin-7-yl)-7-(piperazin-1-yl)-2H-chromen-2-one] | < 300 nM | ***** (fold increase >1.65) | < 0.1 µM
11 | 245 to 250 °C | O=c1oc2cc(N3CCN(CCO)CC3)ccc2cc1-c1cn2cc(Cl)ccc2n1 [Compound 104, 3-(6-chloroimidazo[1,2-a]pyridin-2-yl)-7-[4-(2-hydroxyethyl)piperazin-1-yl]-2H-chromen-2-one] |  | *** (fold increase between >1.35 and ≤1.5) | 3 to 30 µM
12 | 287 to 289 °C | Cc1cn2cc(-c3cc4ccc(N5CCN(C6CC6)CC5)cc4oc3=O)nc2cn1 [Compound 811, 7-(4-cyclopropylpiperazin-1-yl)-3-(6-methylimidazo[1,2-a]pyrazin-2-yl)-2H-chromen-2-one] | 300 to 1000 nM | **** (fold increase between >1.5 and ≤1.65) | 0.3 to 1 µM
13 | 276 to 286 °C | O=c1oc2cc(N3CCNCC3)ccc2cc1-c1cn2cc(F)cc(F)c2n1 [Compound 532, 3-(6,8-difluoroimidazo[1,2-a]pyridin-2-yl)-7-(piperazin-1-yl)-2H-chromen-2-one] |  | * (maximum fold increase of ≤1.2) | 0.3 to 1 µM

The remaining lines, values behind:

Row | Compound | melting point | EC1.5x (concentration giving 1.5-fold Smn protein increase) (Smn protein) | maximum fold (Fold) increase of Smn protein (Smn protein) | EC (1.5-fold) [1]
14 | CN(CCO)Cc1ccc2cc(-c3nc4c(Cl)cccc4s3)c(=O)oc2c1 [Compound 271, 3-(4-chloro-1,3-benzothiazol-2-yl)-7-{[(2-hydroxyethyl)(methyl)amino]methyl}-2H-chromen-2-one] | 193 to 196 °C | 3000 to 10000 nM | **** (fold increase between >1.5 and ≤1.65) | 1 to 3 µM
15 | Cl.Cl.O=c1oc2cc(O[C@@H]3CCNC3)ccc2cc1-c1cn2ccsc2n1 [Compound 324, 3-(imidazo[2,1-b][1,3]thiazol-6-yl)-7-[(3R)-pyrrolidin-3-yloxy]-2H-chromen-2-one hydrochloride (1:2)] | 252 to 256 °C |  | *** (fold increase between >1.35 and ≤1.5) | 0.3 to 1 µM
16 | Cc1cn2cc(-c3cc4ccc(C5CCN(CC(C)C)CC5)cc4oc3=O)nc2cn1 [Compound 916, 3-(6-methylimidazo[1,2-a]pyrazin-2-yl)-7-[1-(2-methylpropyl)piperidin-4-yl]-2H-chromen-2-one] | 260 to 270 °C | 300 to 1000 nM | **** (fold increase between >1.5 and ≤1.65) | 0.1 to 0.3 µM
17 | Cc1cn2cc(-c3cc4ccc(OCCNCCO)cc4oc3=O)nc2c(C)n1 [Compound 959, 3-(6,8-dimethylimidazo[1,2-a]pyrazin-2-yl)-7-{2-[(2-hydroxyethyl)amino]ethoxy}-2H-chromen-2-one] | 175 to 177 °C | 300 to 1000 nM | *** (fold increase between >1.35 and ≤1.5) | < 0.1 µM
18 | Cc1cnc2nc(-c3cc4ccc(O[C@@H]5CCNC5)cc4oc3=O)cn2c1.Cl.Cl [Compound 327, 3-(6-methylimidazo[1,2-a]pyrimidin-2-yl)-7-[(3R)-pyrrolidin-3-yloxy]-2H-chromen-2-one hydrochloride (1:2)] | 255 to 258 °C |  | ** (fold increase between >1.2 and ≤1.35) | 0.3 to 1 µM
19 | CCNCCOc1ccc2cc(-c3cn4cc(C)nc(C)c4n3)c(=O)oc2c1 [Compound 930, 3-(6,8-dimethylimidazo[1,2-a]pyrazin-2-yl)-7-[2-(ethylamino)ethoxy]-2H-chromen-2-one] | 189 to 193 °C | < 300 nM | ***** (fold increase >1.65) | < 0.1 µM
20 | Cl.O=c1oc2cc(N3CCNCC3)ccc2cc1-c1nc2cccc(Cl)c2s1 [Compound 6, 3-(7-chloro-1,3-benzothiazol-2-yl)-7-(piperazin-1-yl)-2H-chromen-2-one hydrochloride] | 320 °C (dec.) |  | * (maximum fold increase of ≤1.2) | 1 to 3 µM
21 | Cc1cn2cc(-c3cc4ccc(O[C@@H]5CCNC5)cc4oc3=O)nc2s1.Cl.Cl [Compound 325, 3-(2-methylimidazo[2,1-b][1,3]thiazol-6-yl)-7-[(3R)-pyrrolidin-3-yloxy]-2H-chromen-2-one hydrochloride (1:2)] | 230 to 235 °C |  | * (maximum fold increase of ≤1.2) | 0.3 to 1 µM
22 | Cc1cn2cc(-c3cc4ccc(OCCNCC(C)O)cc4oc3=O)nc2c(C)n1 (stereo not shown) [Compound 961, 3-(6,8-dimethylimidazo[1,2-a]pyrazin-2-yl)-7-{2-[(2-hydroxypropyl)amino]ethoxy}-2H-chromen-2-one] | 185 to 188 °C | < 300 nM | *** (fold increase between >1.35 and ≤1.5) | < 0.1 µM
23 | Cc1cn2cc(-c3cc4ccc(N5CCCNCC5)cc4oc3=O)cc2c(C)n1 [Compound 682, 7-(1,4-diazepan-1-yl)-3-(1,3-dimethylpyrrolo[1,2-a]pyrazin-7-yl)-2H-chromen-2-one] | 187 to 190 °C | 1000 to 3000 nM | *** (fold increase between >1.35 and ≤1.5) | < 0.1 µM
